Experimental data as given in paper PMC12024154, “A Study of Antioxidant, Antihyperlipidemic, and Anti-Glycation Effects of Alkylsulfonic Acids with Quinobenzothiazinyl Substituents: In Vitro and In Silico Investigations” (Antioxidants, 2025).
Several values for one entry are separate records, joined by “and”; a condition that tells them apart may be missing. Equal values may be shown once. Marks after values point to notes of the source that are not given here.

Experiments:
[1] = DPPH radical scavenging assay; conditions: average inhibition, concentration range 0.0245 to 0.268 μM, n = 3
Description: The DPPH (2,2-diphenyl-1-picrylhydrazyl) radical scavenging assay was conducted to evaluate the antioxidant activity of compounds 5–12 following the method outlined by Chong et al. with minor modifications. A 1 mL sample with a concentration range of 0.0245 to 0.268 μM was introduced to a 1 mL methanol solution of DPPH ([…]) and vortexed. Following a 20-min incubation at 25 °C, absorbance was assessed at 527 nm using a UV-vis spectrophotometer, with blank as reference. Ascorbic acid served as a positive control. The negative control consists of a setup without samples (ascorbic acid and synthetic compounds). The percentage of DPPH free radical inhibition was determined using Equation (1) provided below.
% of DPPH radical scavenging activity was calculated using the following equation:(1) AA%=100−[Abs sample−Abs blank100/Abs control] • Equation (1) where: • Abs control = absorbance of the control. • Abs sample = absorbance of the sample.

BSA-glucose = BSA-glucose antiglycation assay; design: species or system bovine; conditions: 7 days, 37 °C, pH 7.4, n = 3; read-out: BSA-glucose glycation IC50
Description: The BSA-glucose assay is conducted according to the methodology outlined by Mridula et al.. […] The reaction mixture was thoroughly mixed and incubated for 5 min. Following incubation, 0.5 mL of sodium azide was added to each tube. The tubes underwent incubation at 37 °C in the absence of light for a duration of seven days. Aminoguanidine is used as a positive control. Following a seven-day incubation period, the samples were analyzed with the Omega microplate reader (BMG LABTECH, Ortenberg, Germany), measuring fluorescence intensity at an excitation wavelength of 370 nm and an emission wavelength of 440 nm. The experiment was conducted in triplicate.

[2] = test system: differentiated 3T3-L1 adipocytes; assay: Intracellular ROS production (DCFH-DA, AAPH-stimulated); assay type: cell-based; conditions: 24 h treatment
Description: Differentiation of 3T3-L1 cells was performed within one week through culturing in MDI medium, which consisted of 0.5 mM 3-isobutyl-1-methylxanthine, 1 μM dexamethasone, and 1 μg/mL insulin, for 48 h in 10% FBS-DMEM. Subsequently, the cells were transferred to fresh 10% FBS and 90% DMEM supplemented with 1 μg/mL insulin.
On day 8 of differentiation, intracellular ROS levels in 3T3 L1 cells were assessed using the oxidation-sensitive fluorogenic probe 2′,7′-dichlorodihydrofluorescein-diacetate (DCFH-DA), following a method established by Forbes-Hernández et al., with minor modification. Post-differentiation, the cells were treated with the respective doses of the compounds for a period of 24 h. Following this, the cells underwent incubation with DCFH-DA (25 μM) at 37 °C for a duration of 30 min in the absence of light. Consequently, the cells were stimulated with 1 mM AAPH as a ROS initiator for a duration of 1 h. The density of light was measured using a spectrofluorometer with an excitation wavelength of 480 nm and an emission wavelength of 530 nm.

pancreatic lipase = target: T1, pancreatic lipase (Sus scrofa, UniProt P00591); assay: In vitro pancreatic lipase inhibition assay; assay type: biochemical; conditions: porcine pancreas powder, pNPB substrate, n = 3
T1 construct: The enzyme source utilized was porcine pancreas powder; from tissue; host or cells: porcine pancreas (powder)
T1 sequence (P00591 1-450): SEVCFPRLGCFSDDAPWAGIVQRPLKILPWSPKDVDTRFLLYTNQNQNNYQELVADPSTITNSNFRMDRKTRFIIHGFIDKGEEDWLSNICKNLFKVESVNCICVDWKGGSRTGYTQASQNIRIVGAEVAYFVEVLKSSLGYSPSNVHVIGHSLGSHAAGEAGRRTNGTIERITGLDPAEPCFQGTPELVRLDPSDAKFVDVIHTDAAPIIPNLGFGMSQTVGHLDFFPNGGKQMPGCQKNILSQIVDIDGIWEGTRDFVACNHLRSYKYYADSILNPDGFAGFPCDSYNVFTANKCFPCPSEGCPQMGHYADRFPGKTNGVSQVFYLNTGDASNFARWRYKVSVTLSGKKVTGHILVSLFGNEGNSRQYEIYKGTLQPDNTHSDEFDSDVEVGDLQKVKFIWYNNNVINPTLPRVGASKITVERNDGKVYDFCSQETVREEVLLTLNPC
Description: The pancreatic lipase inhibition assay is conducted following the method outlined by Ajayi et al. (2022) with minor modifications. The enzyme source utilized was porcine pancreas powder at a concentration of 0.1 mg·mL^−1 in Tris–HCl buffer, pH 8.0. In a 96-well plate, 50 μL of phosphate–buffer solution (pH 7.0), 50 μL of pNPB (500 μM), and 50 μL of test samples 5–12 with concentrations ranging from 0.0245 to 0.268 μM were pipetted and mixed thoroughly. Fifty microliters of pancreatic enzyme were added to the resultant mixture and incubated at room temperature for 30 min. The resulting yellow p-nitrophenol was measured spectrophotometrically at 405 nm. Control was conducted concurrently without the addition of a test sample. […] PL inhibition was determined using the following formula: PL inhibition (%) = [(Activity of control − activity of test)/activity of control] × 100. The IC50 is determined utilizing GraphPad 10 software (GraphPad Software, LLC, San Diego, CA, USA).

[3] = Chelating capacity (ferrozine) assay; conditions: 0.0245 to 0.268 μM
Description: Chelating capacity assay is conducted following the method outlined by Chong et al. with minor modifications. Samples of 0.1 mL with concentrations ranging from 0.0245 to 0.268 μM were combined with 0.5 mL of a […] and 0.2 mL of a 5 mM ferrozine solution. Then, a 10-min incubation at room temperature, absorbance was recorded at 562 nm using a blank solution in a 96-well plate reader. EDTA served as a positive control. The negative control consists of a sample devoid of any substances, including EDTA and synthetic compounds. The percentage of ferrous chelation was calculated using the Equation (1).

SMILES: O=S(=O)(O)CCCN1c2ccc(Cl)cc2Sc2cc3ccccc3nc21 [Compound 7, 3-(9-chloro[3,2-b]benzo[1,4]thiazin-6-yl)propane-1-sulfonic acid]
- DPPH mean inhibition [1]: 8.47%
- IC50 (BSA-glucose): 4130 nM
- % ROS Generation ([2]; 0.02 μM): 143.18 ± 10.65% and 143.18 ± 10.65 ^a %
- % ROS Generation ([2]; 0.06 μM): 113.48 ± 10.27 ^a %
- % ROS Generation ([2]; 0.1 μM): 33.27 ± 6.16 ^b %
- % ROS Generation ([2]; 0.2 μM): 15.63 ± 2.74 ^b %
- % ROS Generation ([2]; 0.25 μM): 14.96 ± 1.25% and 14.96 ± 1.25 ^b %
- IC50 (pancreatic lipase): 890 nM

SMILES: O=S(=O)(O)CCCCN1c2ccc(Cl)cc2Sc2cc3ccccc3nc21 [Compound 11, 4-(9-chloro[3,2-b]benzo[1,4]thiazin-6-yl)butane-1-sulfonic acid]
- DPPH mean inhibition [1]: 8.47%
- IC50 (BSA-glucose): 1890 nM
- % ROS Generation ([2]; 0.02 μM): 104.90 ± 5.3% and 104.90 ± 5.31 ^a %
- % ROS Generation ([2]; 0.06 μM): 35.75 ± 11.03 ^c %
- % ROS Generation ([2]; 0.1 μM): 46.64 ± 6.13 ^bc %
- % ROS Generation ([2]; 0.2 μM): 75.96 ± 2.21 ^ab %
- % ROS Generation ([2]; 0.25 μM): 57.18 ± 1.66% and 57.18 ± 1.66 ^bc %
- IC50 (pancreatic lipase): 870 nM

SMILES: CSc1ccc2c(c1)Sc1cc3ccccc3nc1N2CCCCS(=O)(=O)O [Compound 12, 4-(9-methylthio[3,2-b]benzo[1,4]thiazin-6-yl)butane-1-sulfonic acid]
- DPPH mean inhibition [1]: 5.53%
- IC50 (BSA-glucose): 1800 nM
- % ROS Generation ([2]; 0.02 μM): 119.82 ± 5.12% and 119.82 ± 5.12 ^a %
- % ROS Generation ([2]; 0.06 μM): 102.85 ± 1.47 ^b %
- % ROS Generation ([2]; 0.1 μM): 97.18 ± 2.61 ^b %
- % ROS Generation ([2]; 0.2 μM): 80.38 ± 1.72 ^c %
- % ROS Generation ([2]; 0.25 μM): 60.12 ± 1.74% and 60.12 ± 1.74 ^d %
- IC50 (pancreatic lipase): 566 nM

SMILES: CSc1ccc2c(c1)Sc1cc3ccccc3nc1N2CCCS(=O)(=O)O [Compound 8, 3-(9-methylthio[3,2-b]benzo[1,4]thiazin-6-yl)propane-1-sulfonic acid]
- DPPH mean inhibition [1]: 7.36%
- IC50 (BSA-glucose): 980 nM
- % ROS Generation ([2]; 0.02 μM): 149.62 ± 6.71% and 149.62 ± 6.71 ^a %
- % ROS Generation ([2]; 0.06 μM): 101.04 ± 7.69 ^b %
- % ROS Generation ([2]; 0.1 μM): 71.47 ± 2.98 ^c %
- % ROS Generation ([2]; 0.2 μM): 62.94 ± 4.59 ^c %
- % ROS Generation ([2]; 0.25 μM): 50.89 ± 2.85% and 50.89 ± 2.85 ^d %
- IC50 (pancreatic lipase): 1320 nM

SMILES: O=C(O)CN(CCN(CC(=O)O)CC(=O)O)CC(=O)O [EDTA]
- Chelating activity [3]: increasing inhibitory action with increased concentration

SMILES: O=S(=O)(O)CCCCN1c2ccccc2Sc2cc3ccccc3nc21 [Compound 9, 4-(quino[3,2-b]benzo[1,4]thiazin-6-yl)butane-1-sulfonic acid]
- DPPH mean inhibition [1]: 2.45%
- IC50 (BSA-glucose): 1090 nM
- % ROS Generation ([2]; 0.02 μM): 169.62 ± 13.81% and 169.62 ± 13.81 ^a %
- % ROS Generation ([2]; 0.06 μM): 151.45 ± 25.13 ^ab %
- % ROS Generation ([2]; 0.1 μM): 151.54 ± 32.18 ^ab %
- % ROS Generation ([2]; 0.2 μM): 61.36 ± 1.58 ^c %
- % ROS Generation ([2]; 0.25 μM): 26.38 ± 1.73% and 26.38 ± 1.73 ^c %
- IC50 (pancreatic lipase): 670 nM and 477 nM

SMILES: O=S(=O)(O)CCCN1c2ccc(F)cc2Sc2cc3ccccc3nc21 [Compound 6, 3-(9-fluoroquino[3,2-b]benzo[1,4]thiazin-6-yl)propane-1-sulfonic acid]
- DPPH mean inhibition [1]: 3.45%
- IC50 (BSA-glucose): 1570 nM
- % ROS Generation ([2]; 0.02 μM): 137.15 ± 9.37 ^a %
- % ROS Generation ([2]; 0.06 μM): 126.66 ± 2.43 ^a %
- % ROS Generation ([2]; 0.1 μM): 88.31 ± 3.13 ^b %
- % ROS Generation ([2]; 0.2 μM): 37.15 ± 9.37% and 69.68 ± 7.12 ^c %
- % ROS Generation ([2]; 0.25 μM): 63.73 ± 1.04% and 63.73 ± 1.04 ^c %
- IC50 (pancreatic lipase): 1240 nM

SMILES: N=C(N)NN [aminoguanidine, reference compound]
- IC50 (BSA-glucose): 310 nM

SMILES: O=C1O[C@H]([C@@H](O)CO)C(O)=C1O [ascorbic acid, reference compound]
- DPPH mean inhibition [1]: 54.24%

SMILES: O=S(=O)(O)CCCN1c2ccccc2Sc2cc3ccccc3nc21 [Compound 5, 3-(quino[3,2-b]benzo[1,4]thiazin-6-yl)propane-1-sulfonic acid]
- DPPH mean inhibition [1]: 5.49%
- IC50 (BSA-glucose): 790 nM
- % ROS Generation ([2]; 0.02 μM): 208.69 ± 13.07% and 208.69 ± 13.07 ^a %
- % ROS Generation ([2]; 0.06 μM): 142.87 ± 15.43 ^b %
- % ROS Generation ([2]; 0.1 μM): 76.83 ± 0.0 ^c %
- % ROS Generation ([2]; 0.2 μM): 39.72 ± 6.30 ^c %
- % ROS Generation ([2]; 0.25 μM): 39.24 ± 0.0 ^c %
- IC50 (pancreatic lipase): 1570 nM

SMILES: O=S(=O)(O)CCCCN1c2ccc(F)cc2Sc2cc3ccccc3nc21 [Compound 10, 4-(9-fluoroquino[3,2-b]benzo[1,4]thiazin-6-yl)butane-1-sulfonic acid]
- DPPH mean inhibition [1]: 6.21%
- IC50 (BSA-glucose): 2240 nM
- % ROS Generation ([2]; 0.02 μM): 103.85 ± 1.17% and 103.85 ± 1.17 ^a %
- % ROS Generation ([2]; 0.06 μM): 74.74 ± 2.90 ^b %
- % ROS Generation ([2]; 0.1 μM): 69.81 ± 5.23 ^b %
- % ROS Generation ([2]; 0.2 μM): 52.56 ± 4.14 ^c %
- % ROS Generation ([2]; 0.25 μM): 47.16 ± 3.71% and 47.16 ± 3.71 ^c %
- IC50 (pancreatic lipase): 477 nM
